Reference: PMC12396409, “Screening and hit evaluation of a microbial metabolite library against the pathogenic Plasmodium falciparum and Toxoplasma gondii parasites” (International Journal for Parasitology: Drugs and Drug …, 2025)
Like-named read-outs stand apart in the source and are kept apart here. Where a SMILES comes first, the peptide text is derived from it. Bridges are numbered along the chain shown (N, C = ends). The star is where a group is joined. X2 = CCCCCCCCCCCC(O)CC(=O)*

Columns and labels:
[1] = system: T. gondii RH strain (RH-Tub-eYFP) tachyzoites; assay: microbe, parasite or virus in culture; type: cell-based, Toxoplasma gondii; conditions: 72 h; for Tg_72h_%Growth_Rep1 / Tg_72h_%Growth_Rep2 / percent parasite growth at 2 µg/mL: % growth; for percent parasite growth at 2 µg/mL: Toxoplasma gondii
[2] = system: P. falciparum 3D7 parasites; assay: P. falciparum growth inhibition assay, 2-cycle (120 h treatment), delayed-death screen and dose-response; type: cell-based, Plasmodium falciparum
[3] = system: P. falciparum 3D7 parasites; assay: P. falciparum growth inhibition assay, 1-cycle (72 h treatment), SYBR DNA staining (library screen at 2 μg/mL and dose-response); type: cell-based, Plasmodium falciparum
[4] = library screen at 2 μg/mL, replicate 1
[5] = library screen at 2 μg/mL, replicate 2
[6] = library screen at 2 μg/mL, 120 h, % growth, replicate 1
[7] = library screen at 2 μg/mL, 120 h, % growth, replicate 2
[8] = library screen at 2 μg/mL, 72 h, % growth, replicate 1
[9] = library screen at 2 μg/mL, 72 h, % growth, replicate 2
[10] = T. gondii, parasite screen 2 μg/mL, replicate 1, read-out: Tg_72h_%Growth_Rep1
[11] = T. gondii, parasite screen 2 μg/mL, replicate 2, read-out: Tg_72h_%Growth_Rep2
[12] = T. gondii, 2 μg/mL, values are growth (% of control)

Which Tg_72h_%Growth_Rep1 [1, 4] does the source give for `CC(C)CCCCCC=CCC(=O)N[C@@H](CC(=O)O)C(=O)N[C@@H]1C(=O)N2CCCC[C@@H]2C(=O)N[C@@H](C(C)C(=O)O)C(=O)N[C@@H](CC(=O)O)C(=O)NCC(=O)N[C@@H](CC(=O)O)C(=O)NCC(=O)N[C@H](C(C)N)C(=O)N[C@@H](C(C)C)C(=O)N2CCC[C@H]2C(=O)NC1C` (some centres unmarked) [Aspartocin D] here?
Its Tg_72h_%Growth_Rep1 is 85.89%.

What about the Tg_72h_%Growth_Rep2 [1, 5] of the same compound?
Its Tg_72h_%Growth_Rep2 is 91.61%.

And the Pf_120h_%Growth_Rep1 [2, 6]?
The Pf_120h_%Growth_Rep1 was 152.69%.

And the Pf_120h_%Growth_Rep2 [2, 7]?
The Pf_120h_%Growth_Rep2 was 104.90%.

And the Pf_72h_%Growth_Rep1 [3, 8]?
Its Pf_72h_%Growth_Rep1 is 103.30%.

What about the Pf_72h_%Growth_Rep2 [3, 9] of the same compound?
The Pf_72h_%Growth_Rep2 was 89.43%.

What does the source list for `C[C@@]1(CO)[C@H](O)CC[C@@]2(C)[C@H]1CC[C@H]1C[C@@H]3C[C@@]12CC[C@]3(O)CO` [Aphidicolin]?
percent parasite growth at 2 µg/mL ([1]; library screen at 2 μg/mL, replicate 1, read-out: Tg_72h_%Growth_Rep1): 1.91%; percent parasite growth at 2 µg/mL ([1]; library screen at 2 μg/mL, replicate 2, read-out: Tg_72h_%Growth_Rep2): 0.58%; activity at 2 µg/mL ([2]; Plasmodium falciparum, 3D7, library screen at 2 μg/mL, 120 h, % growth, replicate 1, read-out: Pf_120h_%Growth_Rep1): 10.5%; activity at 2 µg/mL ([2]; Plasmodium falciparum, 3D7, library screen at 2 μg/mL, 120 h, % growth, replicate 2, read-out: Pf_120h_%Growth_Rep2): -6.36%; activity at 2 µg/mL ([3]; Plasmodium falciparum, 3D7, library screen at 2 μg/mL, 72 h, % growth, replicate 1, read-out: Pf_72h_%Growth_Rep1): 7%; activity at 2 µg/mL ([3]; Plasmodium falciparum, 3D7, library screen at 2 μg/mL, 72 h, % growth, replicate 2, read-out: Pf_72h_%Growth_Rep2): 4.32%

Which Tg_72h_%Growth_Rep1 ([1]; T. gondii, parasite screen at 2 μg/mL, replicate 1) does the source give for `CCCCCCCCCCCC(O)CC(=O)NC(CC(C)C)C(=O)NC(CCC(=O)O)C(=O)NC1C(=O)NC(C(C)CC)C(=O)NC(CC(C)C)C(=O)NC(CO)C(=O)NC(CC(C)C)C(=O)NC(CC(C)C)C(=O)NC(CO)C(=O)NC(C(C)C)C(=O)OC1C` (centres unmarked) [BIA-O1430] (X2-LETILSLLSV; ester 3-C; configuration not given here) here?
Its Tg_72h_%Growth_Rep1 is 121.77%.

And the Tg_72h_%Growth_Rep2 ([1]; T. gondii, parasite screen at 2 μg/mL, replicate 2)?
Its Tg_72h_%Growth_Rep2 is 92.49%.

What about the Pf_120h_%Growth_Rep1 ([2]; P. falciparum 3D7, 120 h, parasite screen at 2 μg/mL, % growth, replicate 1) of the same compound?
Its Pf_120h_%Growth_Rep1 is 85.46%.

And the Pf_120h_%Growth_Rep2 ([2]; P. falciparum 3D7, 120 h, parasite screen at 2 μg/mL, % growth, replicate 2)?
Its Pf_120h_%Growth_Rep2 is 72.71%.

What about the Pf_72h_%Growth_Rep1 ([3]; P. falciparum 3D7, 72 h, parasite screen at 2 μg/mL, % growth, replicate 1) of the same compound?
Its Pf_72h_%Growth_Rep1 is 78.47%.

And the Pf_72h_%Growth_Rep2 ([3]; P. falciparum 3D7, 72 h, parasite screen at 2 μg/mL, % growth, replicate 2)?
Its Pf_72h_%Growth_Rep2 is 76.87%.

How did the Tg_72h_%Growth_Rep1 [1, 4] turn out when `CCC/C=C/C=C/C1C[C@@H](O)[C@@H](O)C(=O)[C@H]1C=O` (some centres unmarked) [Frequentin] was run?
Its Tg_72h_%Growth_Rep1 is 198.87%.

What about the Tg_72h_%Growth_Rep2 [1, 5] of the same compound?
The Tg_72h_%Growth_Rep2 was 96.89%.

And the Pf_120h_%Growth_Rep1 [2, 6]?
The Pf_120h_%Growth_Rep1 was 99.31%.

And the Pf_120h_%Growth_Rep2 [2, 7]?
The Pf_120h_%Growth_Rep2 was 94.53%.

What about the Pf_72h_%Growth_Rep1 [3, 8] of the same compound?
The Pf_72h_%Growth_Rep1 was 84.65%.

And the Pf_72h_%Growth_Rep2 [3, 9]?
The Pf_72h_%Growth_Rep2 was 84.20%.

Which Tg_72h_%Growth_Rep1 ([1]; T. gondii RH, library screen at 2 μg/mL, replicate 1) does the source give for `CCC(C(=O)C(C)C(O)C(C)CCc1ccc(C)c(O)c1C(=O)O)C1OC(CC)(C2CCC(O)(CC)C(C)O2)CC1C` (centres unmarked) [BIA-L1533] here?
The Tg_72h_%Growth_Rep1 was -0.84%.

And the Tg_72h_%Growth_Rep2 ([1]; T. gondii RH, library screen at 2 μg/mL, replicate 2)?
The Tg_72h_%Growth_Rep2 was -0.33%.

And the Pf_120h_%Growth_Rep1 ([2]; P. falciparum 3D7, 120 h, library screen at 2 μg/mL, % growth, replicate 1)?
The Pf_120h_%Growth_Rep1 was 6.55%.

What about the Pf_120h_%Growth_Rep2 ([2]; P. falciparum 3D7, 120 h, library screen at 2 μg/mL, % growth, replicate 2) of the same compound?
The Pf_120h_%Growth_Rep2 was 19.46%.

What about the Pf_72h_%Growth_Rep1 ([3]; P. falciparum 3D7, 72 h, library screen at 2 μg/mL, % growth, replicate 1) of the same compound?
Its Pf_72h_%Growth_Rep1 is 6.55%.

What about the Pf_72h_%Growth_Rep2 ([3]; P. falciparum 3D7, 72 h, library screen at 2 μg/mL, % growth, replicate 2) of the same compound?
Its Pf_72h_%Growth_Rep2 is 4.89%.

Which results are given for `CN[C@@H]1C[C@H]2O[C@@](C)([C@@H]1OC)n1c3ccccc3c3c4c(c5c6ccccc6n2c5c31)C(=O)NC4` [staurosporine, reference compound]?
activity in the screen against T. gondii ([1]; 2 μg/mL, active = ≥80 % growth inhibition): active in our screens; percent parasite growth at 2 µg/mL [1, 10]: 1.08%; percent parasite growth at 2 µg/mL [1, 11]: -0.18%; activity at 2 µg/mL ([2]; Plasmodium falciparum, 3D7, 120 h, P. falciparum, 120 h, parasite screen 2 μg/mL, % growth, replicate 1, read-out: Pf_120h_%Growth_Rep1): 10.8%; activity at 2 µg/mL ([2]; Plasmodium falciparum, 3D7, 120 h, P. falciparum, 120 h, parasite screen 2 μg/mL, % growth, replicate 2, read-out: Pf_120h_%Growth_Rep2): 1.05%; activity in the screen against P. falciparum ([3]; 2 μg/mL, 72 h, active = ≥80 % growth inhibition): active in our screens; activity at 2 µg/mL ([3]; Plasmodium falciparum, 3D7, 72 h, P. falciparum, 72 h, parasite screen 2 μg/mL, % growth, replicate 1, read-out: Pf_72h_%Growth_Rep1): 9.8%; activity at 2 µg/mL ([3]; Plasmodium falciparum, 3D7, 72 h, P. falciparum, 72 h, parasite screen 2 μg/mL, % growth, replicate 2, read-out: Pf_72h_%Growth_Rep2): -0.94%

With `COc1ccc(C[C@H](N)C(=O)N[C@H]2[C@@H](O)[C@H](n3cnc4c(N(C)C)ncnc43)O[C@@H]2CO)cc1` [Puromycin] as the compound, how does the percent parasite growth at 2 µg/mL [1, 10] read?
Its percent parasite growth at 2 µg/mL is -0.59%.

What about the percent parasite growth at 2 µg/mL [1, 11] of the same compound?
Its percent parasite growth at 2 µg/mL is 1.12%.

And the activity at 2 µg/mL ([2]; Plasmodium falciparum, 3D7, P. falciparum, 120 h, parasite screen 2 μg/mL, % growth, replicate 1, read-out: Pf_120h_%Growth_Rep1)?
The activity at 2 µg/mL was -0.01%.

What about the activity at 2 µg/mL ([2]; Plasmodium falciparum, 3D7, P. falciparum, 120 h, parasite screen 2 μg/mL, % growth, replicate 2, read-out: Pf_120h_%Growth_Rep2) of the same compound?
The activity at 2 µg/mL was 7.14%.

What about the activity at 2 µg/mL ([3]; Plasmodium falciparum, 3D7, P. falciparum, 72 h, parasite screen 2 μg/mL, % growth, replicate 1, read-out: Pf_72h_%Growth_Rep1) of the same compound?
Its activity at 2 µg/mL is 1.82%.

What about the activity at 2 µg/mL ([3]; Plasmodium falciparum, 3D7, P. falciparum, 72 h, parasite screen 2 μg/mL, % growth, replicate 2, read-out: Pf_72h_%Growth_Rep2) of the same compound?
The activity at 2 µg/mL was 1.65%.

How did the Mean ([1]; T. gondii, 2 μg/mL, mean of both replicates, growth (% of control)) turn out when `CO[C@@H]1[C@@H](OC(N)=O)[C@@H](O)[C@H](Oc2ccc3c(O)c(NC(=O)c4ccc(O)c(CC=C(C)C)c4)c(=O)oc3c2C)OC1(C)C` [Novobiocin, reference compound] was run?
The Mean was 51.41.

And the “Replicate 1” value [1, 12]?
The value was 9.17.

And the “Replicate 2” value [1, 12]?
The value was 93.65.

And the “3) Fold change (72 h/120 h)” value [2]?
The value was 5.7.

What about the activity at 2 µg/mL ([2]; Plasmodium falciparum, 3D7, 120 h, P. falciparum, 2 μg/mL, 120 h; read-out: 2) Growth (%) at 120 h) of the same compound?
Its activity at 2 µg/mL is 14.2%.

And the activity at 2 µg/mL ([3]; Plasmodium falciparum, 3D7, 72 h, P. falciparum, 2 μg/mL, 72 h; read-out: 1) Growth (%) at 72 h)?
Its activity at 2 µg/mL is 81.4%.
